The text below walks through data of patent US20240368145A1, “METHODS FOR TREATING CANCER” (IMMUNIC AG, priority 2021, published 2024).

Broadly, the GI50 is the concentration that inhibits growth by half. Broadly, the IC50 is the concentration needed to halve the response being measured.

In one test the test system is AR-V7 protein. As to the kind of experiment: Androgen receptor protein expression (western blot) in 22Rv1: AR-V7. The test is classed as cell-based, human. The conditions noted are these: 22Rv1, 6 μM, 48 h; for AR-V7 protein level: western blot quantification. Here is the method: After 48 h, cell were lysed using cell extraction buffer (Life Technologies #FNN0011) for western blot. […] The membrane is then incubation for 1 hour in blocking buffer (5% milk in 20 mM Tris, 150 mM NaCl, pH 7.5, 0.05% Tween 20 [TBS-T]). After this incubation, the primary antibody is added and incubated overnight at 4° C. After washing, the membrane was incubated with the secondary antibody for 1 h. Visualization of the bands was performed using the femto maximum sensitivity substrate reagent and the luminescence signal recorded with the Fusion FX7 (Vilber). For protein quantification, InageJ was used.

The test system of test [1] is prostate cancer cell line LNCAP. As to the kind of experiment: Oncolead sulforhodamin B growth inhibition, LNCAP. In kind it is cell-based. The note with it: Homo sapiens, sulforhodamin B assay, 72 and 120 h treatment, read-out: GI50 range LNCAP. How it is done: (§1) Cell growth was assessed by measuring protein content using sulforhodamin B. Growth inhibition was calculated by (TCMD−T0)/TNCT72h−T0)*100% with TCMD is the tumor growth at 72 h with the respective compound concentration. To is the protein content of the cell line before treatment and TNCT72h is the tumor growth of the DMSO control.

For the next test, the system named is CAMKK2 mRNA. As to the kind of experiment: Expression of AR target genes (qRT-PCR) in 22Rv1: CAMKK2. The test is classed as cell-based. The conditions noted are these: 22Rv1, 1 μM, 48h; relative to vehicle control (DMSO). How it is done:
The prostate cancer cell line 22Rv1 was treated for 48h with 1 μM Example compound 1, 1/1, 2/1, 2/2, 2/3, 2/4, 2/5, 2/6, 2/7, 2/8, 2/9 and 2/10 and reference compounds SR2211 and XY018. RNA was extracted using the RNA isolation kit XS (Macherey-Nagel) and following the manufacture's manual. RNA quantity was measured with the Nanodrop before reverse transcription using Superscript II (Invitrogen #100004925). For the quantitative real-time PCR with SYBR-Green (Qiagen #204074), the following primers were used:
qRT-PCR was performed using SYBR-Green (Qiagen #204074) reagents in a PCR cycler (Gorbett Research) Rotor Gene RG3000 with the following program: denaturation for 5′ at 95° C.; 40 cycles of 20″ at 95° C. and 15″ at 60° C.″ and at the end of the last cycle, the melting temperature of the products was determined by gradually increasing from 60° C. to 99° C. CT values from all samples were normalized to reference (housekeeping) genes using the mean CT value of the GAPDH and YWHAZ (reference genes). Next the values are put relative to the untreated control (vehicle/DMSO).

The target of another test is T1, RORγt (Homo sapiens, UniProt P51449).
T1 sequence (P51449 269-518 limits assumed): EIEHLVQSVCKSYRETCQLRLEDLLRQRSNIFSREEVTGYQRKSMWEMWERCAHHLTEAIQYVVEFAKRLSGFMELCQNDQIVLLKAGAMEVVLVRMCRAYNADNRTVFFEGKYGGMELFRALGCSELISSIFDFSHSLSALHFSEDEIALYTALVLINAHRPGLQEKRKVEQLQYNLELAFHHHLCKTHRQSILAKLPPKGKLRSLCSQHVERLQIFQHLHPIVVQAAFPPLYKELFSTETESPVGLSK
As to the kind of experiment: RORγt inhibition, Indigo Biosciences Human RAR-related Orphan Receptor, Gamma Reporter Assay System. The test is classed as cell-based. The note with it: luciferase reporter cells, 22-24 h incubation; read-out: IC50 range, RORγt assay. How it is done: The in vitro inhibition of RORγt was measured using Indigo Biosciences Human RAR-related Orphan Receptor, Gamma Reporter Assay System (Product #11304001-32) as described in the technical manual. In brief, 200 μL of Reporter Cells is dispensed into wells of the assay plate and preincubated for 4-6 h. Following the pre-incubation period, culture media are discarded and 200 μL/well of the prepared 1×-concentration treatment media are added. Following 22-24 h incubation, treatment media are discarded and Luciferase Detection Reagent is added. The intensity of light emission (in units of ‘Relative Light Units’; RLU) from each assay well is quantified using a plate-reading luminometer. Average values of RLU were determined for each treatment concentration. Non-linear regression analyses were performed and IC50 values determined using GraphPad Prism software. Provided inverse-agonists ursolic acid served as positive control.

In another test the test system is IFNγ. As to the kind of experiment: Cytokine assay, human PBMC stimulated with PHA: IFNγ. In kind it is cell-based. The conditions noted are these: PHA-activated, 48 hours, read-out: IFNγ inhibition (IC50 range). Here is the method:
Peripheral blood mononuclear cells (PBMC) from healthy human donors were purified using Accuspin™ System-Histopaque-1077 (Sigma) according to the protocol recommended by the manufacturer. Purified PBMC were then washed twice with phosphate-buffered saline (PBS) and resuspended in RPMI1640 culture medium supplemented with 10% dialyzed heat inactivated fetal calf serum, 1.5 mM L-glutamine, 100 U penicillin/mL and […] streptomycin/mL (all from PAN Biotech, Aidenbach, Germany). For stimulation, PBMC were seeded at 1×10^5 cells/well, activated with 2 gg/mL phytohaemagglutinin (PHA, Sigma) and incubated with the test compounds for 48 hours. IL-17A, IL-17F and INFγ were then determined in the culture supernatant using a Luminex BioPlex system, following the manufacturer's instructions (BioRad, Munich, Germany). To determine the IC50, compounds were titrated semilogarithmically.
Cytokines were determined in the aforementioned culture supernatant using the following methods: IL-17A was measured using the human homodimer IL-17A ELISA Ready Set Go Kit from cBioscience (Frankfurt, Germany); IL-17F using the human IL-17F ELI-Pair from Holzel Diagnostica GmbH (K51n, Germany); and IFNγ using the OptEIA human IFN-g ELISA from BD Bioscience (Heidelberg, Germany), all following the manufacturer's instructions.

In test [2] the test system is prostate cancer cell line PC3. As to the kind of experiment: Oncolead sulforhodamin B growth inhibition, PC3. The test is classed as cell-based. The note with it: sulforhodamin B assay; 72 and 120 h treatment; read-out: GI50 range PC3. Here is the method: as §1
The subject of test [3] is prostate cancer cell line VCaP. As to the kind of experiment: Oncolead sulforhodamin B growth inhibition, VCaP. The note with it: for GI50: Homo sapiens, VCaP, sulforhodamin B assay, 72 and 120 h treatment, read-out: GI50 range VCAP; for effect on growth of VCaP: highest dose (30 μM). In kind it is cell-based. Here is the method: as §1

As for `CC(C)(O)CCn1ncc(-c2onc(-c3c(F)cccc3Cl)c2-c2ncccn2)c1C(F)(F)F` [2/8], in the test with AR-V7 protein, the “AR-V7 protein levels” value is recorded as “strong reduction”. The AR-V7 protein level in the test with AR-V7 protein is listed as 0.309. In addition, the results for the concentration for 50% growth inhibition (GI50) in test [1], in test [2] and in test [3] were 100 to 5000 nM, less than 25 nM and not below 5000 nM, respectively. The “CAMKK2 mRNA expression” value with CAMKK2 mRNA was found to be 1.149. Besides, the IC50 on RORγt was 10 to 100 nM; in the test with IFNγ, less than 25 nM. The “effect on growth of VCaP” value in test [3] is on record as “No effect”.

As for `COC(=O)c1c(-c2c(F)cccc2Cl)noc1-c1cnn(-c2cccc(Cl)c2)c1C(F)(F)F` [Example 1, Methyl 3-(2-chloro-6-fluorophenyl)-5-(1-(3-chlorophenyl)-5-(trifluoromethyl)-1H-pyrazol-4-yl)isoxazole-4-carboxylate], the “AR-V7 protein levels” value with AR-V7 protein is listed as “strong reduction”. Further, the AR-V7 protein level in the test with AR-V7 protein came out at 0.368. The figures for the GI50 in test [1], in test [2] and in test [3] were 25 to 100 nM, less than 25 nM and not below 5000 nM, respectively. Moreover, the “CAMKK2 mRNA expression” value in the test with CAMKK2 mRNA was 0.884. In addition, the IC50 at RORγt is less than 10 nM; with IFNγ it was less than 25 nM. The “effect on growth of VCaP” value in test [3] is “No effect”.

For the compound `Fc1cccc(Cl)c1-c1noc(-c2cnn(-c3cccc(Cl)c3)c2C(F)(F)F)c1-c1nccs1` [Example 1/1], the “AR-V7 protein levels” value in the test with AR-V7 protein is “strong reduction”. For the same compound, the AR-V7 protein level in the test on AR-V7 protein amounted to 0.323. Besides, the GI50 in test [1] is less than 25 nM; in test [2] it was less than 25 nM; in test [3], not below 5000 nM. Further, the “CAMKK2 mRNA expression” value in the test on CAMKK2 mRNA turned out to be 0.883. Besides, the IC50 is less than 10 nM at RORγt and less than 25 nM in the test with IFNγ. For the same compound, the “effect on growth of VCaP” value in test [3] is “No effect”.
